The target in one assay is T1, m5-HT3AR (Mus musculus, UniProt P23979).
T1 sequence (P23979 24-489): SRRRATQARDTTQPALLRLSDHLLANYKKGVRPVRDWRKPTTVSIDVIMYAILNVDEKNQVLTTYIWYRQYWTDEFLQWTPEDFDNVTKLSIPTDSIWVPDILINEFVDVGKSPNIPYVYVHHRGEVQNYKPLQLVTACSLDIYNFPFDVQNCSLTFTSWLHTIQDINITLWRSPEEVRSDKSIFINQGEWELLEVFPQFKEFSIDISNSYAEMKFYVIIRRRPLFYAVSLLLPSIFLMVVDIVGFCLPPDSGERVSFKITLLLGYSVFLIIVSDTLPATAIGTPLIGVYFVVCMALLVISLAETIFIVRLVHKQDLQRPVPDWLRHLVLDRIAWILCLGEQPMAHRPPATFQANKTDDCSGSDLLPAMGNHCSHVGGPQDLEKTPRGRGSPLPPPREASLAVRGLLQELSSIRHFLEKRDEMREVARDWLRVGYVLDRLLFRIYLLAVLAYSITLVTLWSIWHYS
Kind of assay: TEVC selectivity, m5-HT3AR in oocytes. The format is cell-based. Conditions: 30 μM, 30 s preapplication, 2 μM 5-HT (EC20–EC40). On the procedure:
The cDNAs for the various WT and chimeric CLR subunits were linearized and subsequently transcribed and capped mMessage mMachine T7 RNA transcription kit (Ambion, Waltham, MA). […]
On the day of experiment, all compound dilutions were prepared in a saline solution [115 mM NaCl, 2.5 mM KCl, 10 mM MOPS (pH 7.5), 1.8 mM CaCl2, 0.1 mM MgCl2] and pH adjusted to 7.5 (if needed). […] Currents were recorded using pCLAMP 10 (Molecular Devices, Sunnyvale, CA). […]
In all recordings, the compounds or compound combinations were applied in the bath until the peak current decayed to a steady state (up to 30 sec at the most). […] The functional properties of the modulators at the CLRs were determined by pre-application of the modulator to the perfusate 30 sec and followed by co-application of the modulator and the agonist to the perfusate. […]
Data analysis of the results from the TEVC recordings were performed using Clampfit software version 10.5 (Molecular Devices, Crawley, UK) and GraphPad Prism version 7.0c (GraphPad Software, Inc. La Jolla, CA). […] I-V relationships were analyzed by fitting the curves with a third order polynomial model. […]

For another assay, the target named is T2, rα3β4-nAChR (Rattus norvegicus, UniProt P04757+P12392).
T2 construct: expressed in transfected cells
T2 sequence (P04757 26-499): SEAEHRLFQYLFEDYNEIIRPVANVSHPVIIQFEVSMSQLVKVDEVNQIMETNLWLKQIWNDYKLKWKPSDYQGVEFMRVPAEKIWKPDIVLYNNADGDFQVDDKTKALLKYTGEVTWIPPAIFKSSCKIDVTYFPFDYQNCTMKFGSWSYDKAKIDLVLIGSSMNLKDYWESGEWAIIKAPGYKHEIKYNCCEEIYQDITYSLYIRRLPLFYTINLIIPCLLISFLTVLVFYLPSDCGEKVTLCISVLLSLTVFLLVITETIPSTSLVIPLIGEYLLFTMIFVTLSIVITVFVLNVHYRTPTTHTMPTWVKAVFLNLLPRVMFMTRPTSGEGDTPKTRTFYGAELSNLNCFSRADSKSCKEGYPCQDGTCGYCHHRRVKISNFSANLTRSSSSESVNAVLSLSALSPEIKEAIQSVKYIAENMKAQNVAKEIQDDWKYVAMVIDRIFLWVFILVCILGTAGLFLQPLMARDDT
T2 sequence (P12392 22-495 limits assumed): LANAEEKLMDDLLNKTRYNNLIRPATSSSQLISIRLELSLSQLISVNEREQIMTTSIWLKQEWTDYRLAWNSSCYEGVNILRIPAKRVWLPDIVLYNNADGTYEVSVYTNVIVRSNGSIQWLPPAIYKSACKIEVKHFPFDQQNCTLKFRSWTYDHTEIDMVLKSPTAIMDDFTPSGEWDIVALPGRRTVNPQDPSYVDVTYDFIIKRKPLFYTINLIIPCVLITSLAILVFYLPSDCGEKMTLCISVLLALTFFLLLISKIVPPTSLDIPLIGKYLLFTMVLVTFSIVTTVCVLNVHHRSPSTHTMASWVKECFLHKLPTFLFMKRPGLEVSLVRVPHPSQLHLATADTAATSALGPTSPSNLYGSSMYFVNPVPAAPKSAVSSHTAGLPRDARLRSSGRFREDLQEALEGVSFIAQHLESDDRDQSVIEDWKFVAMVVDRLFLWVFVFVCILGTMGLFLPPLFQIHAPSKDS
Put plainly: FMP assay at rα3β4-nAChR-HEK293 cells ((S)-nicotine-induced response). It counts as cell-based. Conditions: concentrations up to 100 μM, data not shown.

As to `CC(C)(C)c1csc(NC(=O)c2cccc(F)c2)n1` [5a, N-(4-(tert-butyl)thiazol-2-yl)-3-fluorobenzamide], the “Agonist, antagonist or PAM activity” value at m5-HT3AR is reported as “did not display significant activity”.
With `COC(=O)c1sc(NC(=O)c2cc(Br)ccc2Cl)nc1C` [compound 1, 2-(5-bromo-2-chlorobenzamido)-4-methylthiazole-5-methyl ester], the “Effect on (S)-nicotine-induced response” value on rα3β4-nAChR is recorded as “did not affect”.
